Experimental data: US11629171B2, “Beta-hairpin peptidomimetics” (POLYPHOR AG, priority 2017, dated 2023)
Converted amounts (≈) assume the structure as drawn. Like-named read-outs stand apart in the source and are kept apart here. Where a SMILES comes first, the peptide text is derived from it. Bridges are numbered along the chain shown (N, C = ends). Roman numbers before positions name the chains, in order. [ ]: non-standard residue; d: D form. The star is where a group is joined. Tyrosinol = OC[C@H](Cc1ccc(O)cc1)N*; Thr(ol) = C[C@@H](O)[C@H](N)CO; Tle = CC(C)(C)[C@H](N)C(=O)O; Hiv = CC(C)[C@H](O)C(=O)O; dDab = NCC[C@@H](N)C(=O)O; hSer = N[C@@H](CCO)C(=O)O; NHCH(CH2OH)2 = OCC(CO)N*; Dab = NCC[C@H](N)C(=O)O; Dap = NC[C@H](N)C(=O)O

Columns and labels:
Assay type in all cases: cell-based
[1] = test system: human red blood cells (hRBC); assay: Hemolysis
Summary of the method: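 Washed fresh human RBC (20% v/v) incubated with peptide at 200 μg/mL for 1 h at 37° C with shaking. Supernatant OD540 measured after dilution, blank corrected; percent hemolysis = OD540 peptide / OD540 of 2% Triton X-100 lysis × 100, PBS with 10% water as 0%.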

Escherichia coli 926415 = test system: Escherichia coli 926415
Summary of the method: (§1)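 Standard CLSI microdilution testing: bacterial suspensions standardized against 0.5 McFarland to about 10^6 CFU/mL in MH-II broth meet serially halved peptide concentrations in broth containing 0.002% polysorbate 80; incubation lasts 18-20 h at 35° C before the MIC is scored.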

[2] = test system: Acinetobacter baumannii DSM 30008
Summary of the method: as §1

[3] = test system: Pseudomonas aeruginosa ATCC 27853
Summary of the method: as §1

[4] = test system: Klebsiella pneumoniae SSI #3010
Summary of the method: as §1

[5] = test system: Acinetobacter baumannii 872842
Summary of the method: as §1

[6] = test system: Enterobacter cloacae 848840
Summary of the method: as §1

[7] = test system: Escherichia coli ATCC 25922
Summary of the method: as §1

[8] = test system: Klebsiella pneumoniae 968733
Summary of the method: as §1

Row | Structure (SMILES) | Hemolysis at 200 μg/mL ([1]; red cells of human, 1 h, 200) | MIC (Escherichia coli 926415; 926415) | MIC ([2]; DSM 30008) | MIC ([3]; ATCC 27853) | MIC ([4]; SSI #3010) | MIC [5]; 872842 | MIC [6]; 848840 | MIC ([7]; ATCC 25922) | MIC [8]; 968733 | Hemolysis at 200 μg/mL ([1]; 200 μg/mL, human red blood cells) | MIC (Escherichia coli 926415; Escherichia coli 926415 clinical isolate, Mueller-Hinton II broth) | MIC ([2]; Acinetobacter baumannii DSM 30008, Mueller-Hinton II broth) | MIC ([3]; Pseudomonas aeruginosa ATCC 27853, Mueller-Hinton II broth) | MIC ([4]; Klebsiella pneumoniae SSI #3010, Mueller-Hinton II broth) | MIC ([5]; Acinetobacter baumannii 872842 clinical isolate, Mueller-Hinton II broth) | MIC ([6]; Enterobacter cloacae 848840 clinical isolate, Mueller-Hinton II broth) | MIC ([7]; Escherichia coli ATCC 25922, Mueller-Hinton II broth) | MIC ([8]; Klebsiella pneumoniae 968733 clinical isolate, Mueller-Hinton II broth)
1 | CC(C)C[C@@H]1NC(=O)[C@@H](CC(C)C)NC(=O)[C@H](CCN)NC(=O)[C@@H](NC(=O)[C@H](CCN)NC(=O)[C@@H](NC(=O)[C@H](CCN)NC(=O)CC[C@@H]2NC(=O)[C@H](CCC(=O)O)NC(=O)[C@H](Cc3ccc(O)cc3)NC(=O)[C@@H](NC(=O)[C@@H](O)C(C)C)CSSC[C@@H](C(=O)N[C@H](CO)[C@@H](C)O)NC(=O)[C@H](C(C)(C)C)NC(=O)[C@H](CN)NC(=O)[C@H](Cc3c[nH]c4ccccc34)NC(=O)[C@H]([C@@H](C)O)NC(=O)[C@@H](CCN)NC2=O)[C@@H](C)O)CCNC(=O)[C@H]([C@@H](C)O)NC(=O)[C@H](CCN)NC(=O)[C@H](CCN)NC1=O [Ex. 91] (I: H-[Hiv]CYEE[dDab]TW[Dap][Tle]C[Thr(ol)] / II: [Dab]T[Dab][Dab][Dab][dL]L[Dab][Dab]T; disulfide I:2-I:11; amide I:5-II:N; lactam II:4-II:C) | <1% | 2 µg/mL (≈ 0.823 µM) | 0.125 µg/mL (≈ 0.0515 µM) | 0.25 µg/mL (≈ 0.103 µM) | 0.25 µg/mL (≈ 0.103 µM) | 0.5 µg/mL (≈ 0.206 µM) | 1 µg/mL (≈ 0.412 µM) | 0.0625 µg/mL (≈ 0.0257 µM) | 2 µg/mL (≈ 0.823 µM) | – | – | – | – | – | – | – | – | –
2 | CC(C)C[C@@H]1NC(=O)[C@@H](CC(C)C)NC(=O)[C@H](CCN)NC(=O)[C@@H](NC(=O)[C@H](CCN)NC(=O)[C@@H](NC(=O)[C@H](CCN)NC(=O)CC[C@@H]2NC(=O)[C@H](CCN)NC(=O)[C@H]([C@@H](C)O)NC(=O)[C@@H](NC(=O)[C@@H](O)C(C)C)CSSC[C@@H](C(=O)N[C@H](CO)Cc3ccc(O)cc3)NC(=O)[C@H](C(C)(C)C)NC(=O)[C@H](CO)NC(=O)[C@H](Cc3c[nH]c4ccccc34)NC(=O)[C@H](CCO)NC(=O)[C@@H](CCN)NC2=O)[C@@H](C)O)CCNC(=O)[C@H]([C@@H](C)O)NC(=O)[C@H](CCN)NC(=O)[C@H](CCN)NC1=O [Ex. 93] (I: H-[Hiv]CT[Dab]E[dDab][hSer]WS[Tle]C-Tyrosinol / II: [Dab]T[Dab][Dab][Dab][dL]L[Dab][Dab]T; disulfide I:2-I:11; amide I:5-II:N; lactam II:4-II:C) | <1% | 0.25 µg/mL (≈ 0.104 µM) | 0.25 µg/mL (≈ 0.104 µM) | 0.25 µg/mL (≈ 0.104 µM) | 0.125 µg/mL (≈ 0.0521 µM) | 0.5 µg/mL (≈ 0.208 µM) | 0.25 µg/mL (≈ 0.104 µM) | 0.125 µg/mL (≈ 0.0521 µM) | 0.5 µg/mL (≈ 0.208 µM) | – | – | – | – | – | – | – | – | –
3 | CC(=O)N[C@H](C(=O)N[C@H]1CSSC[C@@H](C(=O)N[C@H](CO)Cc2ccc(O)cc2)NC(=O)[C@H](C(C)(C)C)NC(=O)[C@H](CO)NC(=O)[C@H](Cc2c[nH]c3ccccc23)NC(=O)[C@H](CCO)NC(=O)[C@@H](CCN)NC(=O)[C@H](CCC(=O)N[C@@H](CCN)C(=O)N[C@H](C(=O)N[C@@H](CCN)C(=O)N[C@H]2CCNC(=O)[C@H]([C@@H](C)O)NC(=O)[C@H](CCN)NC(=O)[C@H](CCN)NC(=O)[C@H](CC(C)C)NC(=O)[C@@H](CC(C)C)NC(=O)[C@H](CCN)NC2=O)[C@@H](C)O)NC(=O)[C@H](CCN)NC(=O)[C@H](CO)NC1=O)C(C)C [Ex. 94] (I: Ac-VCS[Dab]E[dDab][hSer]WS[Tle]C-Tyrosinol / II: [Dab]T[Dab][Dab][Dab][dL]L[Dab][Dab]T; disulfide I:2-I:11; amide I:5-II:N; lactam II:4-II:C) | – | – | – | – | – | – | – | – | – | <1% | 0.25 µg/mL (≈ 0.103 µM) | 0.125 µg/mL (≈ 0.0515 µM) | 0.25 µg/mL (≈ 0.103 µM) | 0.0625 µg/mL (≈ 0.0257 µM) | 0.25 µg/mL (≈ 0.103 µM) | 1 µg/mL (≈ 0.412 µM) | 0.0625 µg/mL (≈ 0.0257 µM) | 0.25 µg/mL (≈ 0.103 µM)
4 | CC(C)C[C@@H]1NC(=O)[C@@H](CC(C)C)NC(=O)[C@H](CCN)NC(=O)[C@@H](NC(=O)[C@H](CCN)NC(=O)[C@@H](NC(=O)[C@H](CCN)NC(=O)CC[C@@H]2NC(=O)[C@H](CCN)NC(=O)[C@H](Cc3ccc(O)cc3)NC(=O)[C@@H](NC(=O)[C@@H](O)C(C)C)CSSC[C@@H](C(=O)NC(CO)CO)NC(=O)[C@H](C(C)(C)C)NC(=O)[C@H](CO)NC(=O)[C@H](Cc3c[nH]c4ccccc34)NC(=O)[C@H](CCO)NC(=O)[C@@H](CCN)NC2=O)[C@@H](C)O)CCNC(=O)[C@H]([C@@H](C)O)NC(=O)[C@H](CCN)NC(=O)[C@H](CCN)NC1=O [Ex. 95] (I: H-[Hiv]CY[Dab]E[dDab][hSer]WS[Tle]C-{NHCH(CH2OH)2} / II: [Dab]T[Dab][Dab][Dab][dL]L[Dab][Dab]T; disulfide I:2-I:11; amide I:5-II:N; lactam II:4-II:C) | <1% | 0.125 µg/mL (≈ 0.0524 µM) | 0.0625 µg/mL (≈ 0.0262 µM) | 0.125 µg/mL (≈ 0.0524 µM) | 0.125 µg/mL (≈ 0.0524 µM) | 0.125 µg/mL (≈ 0.0524 µM) | 4 µg/mL (≈ 1.68 µM) | 0.03125 µg/mL (≈ 0.0131 µM) | 0.125 µg/mL (≈ 0.0524 µM) | – | – | – | – | – | – | – | – | –
5 | CC(=O)N[C@@H](Cc1ccc(O)cc1)C(=O)N[C@H]1CSSC[C@@H](C(=O)NC(CO)CO)NC(=O)[C@H](Cc2c[nH]c3ccccc23)NC(=O)[C@H](CO)NC(=O)[C@H](C(C)C)NC(=O)[C@H](CCO)NC(=O)[C@@H](CCN)NC(=O)[C@H](CCC(=O)N[C@@H](CCN)C(=O)N[C@H](C(=O)N[C@@H](CCN)C(=O)N[C@H]2CCNC(=O)[C@H]([C@@H](C)O)NC(=O)[C@H](CCN)NC(=O)[C@H](CCN)NC(=O)[C@H](CC(C)C)NC(=O)[C@@H](CC(C)C)NC(=O)[C@H](CCN)NC2=O)[C@@H](C)O)NC(=O)[C@H](CCN)NC(=O)[C@H](C(C)C)NC1=O [Ex. 98] (I: Ac-YCV[Dab]E[dDab][hSer]VSWC-{NHCH(CH2OH)2} / II: [Dab]T[Dab][Dab][Dab][dL]L[Dab][Dab]T; disulfide I:2-I:11; amide I:5-II:N; lactam II:4-II:C) | <1% | 2 µg/mL (≈ 0.829 µM) | 0.25 µg/mL (≈ 0.104 µM) | 0.25 µg/mL (≈ 0.104 µM) | 0.25 µg/mL (≈ 0.104 µM) | 2 µg/mL (≈ 0.829 µM) | 2 µg/mL (≈ 0.829 µM) | 0.125 µg/mL (≈ 0.0518 µM) | 4 µg/mL (≈ 1.66 µM) | – | – | – | – | – | – | – | – | –
6 | CC(C)C[C@@H]1NC(=O)[C@@H](CC(C)C)NC(=O)[C@H](CCN)NC(=O)[C@@H](NC(=O)[C@H](CCN)NC(=O)[C@H](CO)NC(=O)[C@H](CCN)NC(=O)CC[C@@H]2NC(=O)[C@H](CN)NC(=O)[C@H](Cc3ccc(O)cc3)NC(=O)[C@@H](NC(=O)[C@@H](O)C(C)C)CSSC[C@@H](C(=O)N[C@H](CO)[C@@H](C)O)NC(=O)[C@H](C(C)(C)C)NC(=O)[C@H](CO)NC(=O)[C@H](Cc3c[nH]c4ccccc34)NC(=O)[C@H]([C@@H](C)O)NC(=O)[C@@H](CCN)NC2=O)CCNC(=O)[C@H]([C@@H](C)O)NC(=O)[C@H](CCN)NC(=O)[C@H](CCN)NC1=O [Ex. 106] (I: H-[Hiv]CY[Dap]E[dDab]TWS[Tle]C[Thr(ol)] / II: [Dab]S[Dab][Dab][Dab][dL]L[Dab][Dab]T; disulfide I:2-I:11; amide I:5-II:N; lactam II:4-II:C) | <1% | 0.125 µg/mL (≈ 0.0527 µM) | 0.0625 µg/mL (≈ 0.0263 µM) | 0.125 µg/mL (≈ 0.0527 µM) | 0.125 µg/mL (≈ 0.0527 µM) | 0.25 µg/mL (≈ 0.105 µM) | 0.25 µg/mL (≈ 0.105 µM) | 0.0625 µg/mL (≈ 0.0263 µM) | 0.25 µg/mL (≈ 0.105 µM) | – | – | – | – | – | – | – | – | –
7 | CC(C)C[C@@H]1NC(=O)[C@@H](CC(C)C)NC(=O)[C@H](CCN)NC(=O)[C@@H](NC(=O)[C@H](CN)NC(=O)[C@@H](NC(=O)[C@H](CCN)NC(=O)CC[C@@H]2NC(=O)[C@H](CN)NC(=O)[C@H](Cc3ccc(O)cc3)NC(=O)[C@@H](NC(=O)[C@@H](O)C(C)C)CSSC[C@@H](C(=O)N[C@H](CO)[C@@H](C)O)NC(=O)[C@H](C(C)(C)C)NC(=O)[C@H](CO)NC(=O)[C@H](Cc3c[nH]c4ccccc34)NC(=O)[C@H](CCN)NC(=O)[C@@H](CCN)NC2=O)[C@@H](C)O)CCNC(=O)[C@H]([C@@H](C)O)NC(=O)[C@H](CCN)NC(=O)[C@H](CCN)NC1=O [Ex. 111] (I: H-[Hiv]CY[Dap]E[dDab][Dab]WS[Tle]C[Thr(ol)] / II: [Dab]T[Dap][Dab][Dab][dL]L[Dab][Dab]T; disulfide I:2-I:11; amide I:5-II:N; lactam II:4-II:C) | <1% | 0.0625 µg/mL (≈ 0.0264 µM) | 0.03125 µg/mL (≈ 0.0132 µM) | 0.25 µg/mL (≈ 0.105 µM) | 0.125 µg/mL (≈ 0.0527 µM) | 0.0625 µg/mL (≈ 0.0264 µM) | 0.125 µg/mL (≈ 0.0527 µM) | 0.125 µg/mL (≈ 0.0527 µM) | 0.125 µg/mL (≈ 0.0527 µM) | – | – | – | – | – | – | – | – | –
